pIC50, pKi: −log10 of the molar value. Read-outs that look alike come from different tables or passages of the source.

We go through 15 compounds from US20200339604A1, “PYRAZOLOPYRIMIDINE COMPOUNDS AS JAK INHIBITORS” (Genentech, Inc., priority 2018, published 2020).

Experiment [1] has as its target T1, isolated recombinant JAK1 kinase domain (Homo sapiens, UniProt P23458).
T1 construct: isolated recombinant JAK1 and JAK2 kinase domain
Description: JAK enzyme assay, JAK1 kinase domain (Caliper LabChip). In kind it is biochemical. The following applies: 1.5 nM JAK1, ATP 25 μM, Morrison tight binding model. The method, then:
(§1) JAK Enzyme Assays were Carried Out as Follows:
(§2) The activity of the isolated recombinant JAK1 and JAK2 kinase domain was measured by monitoring phosphorylation of a peptide derived from JAK3 ([…] fluorescently labeled on the N-terminus with 5-carboxyfluorescein) using the Caliper LabChip® technology (Caliper Life Sciences, Hopkinton, Mass.). To determine inhibition constants (K), compounds were diluted serially in DMSO and added to 50 μL kinase reactions containing purified enzyme (1.5 nM JAK1, or 0.2 nM JAK2), 100 mM HEPES buffer (pH 7.2), 0.015% Brij-35, 1.5 μM peptide substrate, ATP (25 μM), 10 mM MgCl2, 4 mM DTT at a final DMSO concentration of 2%.
(§3) Reactions were incubated at 22° C. in 384-well polypropylene microtiter plates for 30 minutes and then stopped by addition of 25 µL of an EDTA containing solution (100 mM HEPES buffer (pH 7.2), 0.015% Brij-35, 150 mM EDTA), resulting in a final EDTA concentration of 50 mM. After termination of the kinase reaction, the proportion of phosphorylated product was determined as a fraction of total peptide substrate using the Caliper LabChip® 3000 according to the manufacturer's specifications. K values were then determined using the Morrison tight binding model (Morrison, J. F., Biochim. Biophys. Acta. 185:269-296 (1969); William, J. W. and Morrison, J. F., Meth. Enzymol., 63:437-467 (1979)) modified for ATP-competitive inhibition [Ki=Ki, app/(1+[ATP]/Km,app)].

Experiment [2] has as its system JAK1-dependent STAT6 phosphorylation downstream of IL-13 stimulation, BEAS-2B human bronchial epithelial cells. Description: JAK1 pathway assay in cell lines: IL-13 stimulated STAT6 phosphorylation in BEAS-2B cells (MSD). It is filed as cell-based. To be noted: IL-13 stimulation 15 min at EC90, read-out: IL-13 p-STAT6 BEAS-2B IC50. On the procedure:
JAK1 Pathway Assay in Cell Lines was Carried Out as Follows:
Inhibitor potency (EC50) was determined in cell-based assays designed to measure JAK1 dependent STAT phosphorylation. As noted above, inhibition of IL-4, IL-13, and IL-9 signaling by blocking the Jak/Stat signaling pathway can alleviate asthmatic symptoms in pre-clinical lung inflammation models (Mathew et al., 2001, J Exp Med 193(9): 1087-1096; Kudlacz et. al., 2008, Eur J. Pharmacol 582(1-3): 154-161).
In one assay approach, TF-1 human erythroleukemia cells obtained from the American Type Culture Collection (ATCC; Manassas, Va.) were used to measure JAK1-dependent STAT6 phosphorylation downstream of IL-13 stimulation. Prior to use in the assays, TF-1 cells were starved of GM-CSF overnight in OptiMEM medium (Life Technologies, Grand Island, N.Y.) supplemented with 0.5% charcoal/dextran stripped fetal bovine serum (FBS), 0.1 mM non-essential amino acids (NEAA), and 1 mM sodium pyruvate. The assays were run in 384-well plates in serum-free OptiMEM medium using 300,000 cells per well. In a second assay approach, BEAS-2B human bronchial epithelial cells obtained from ATCC were plated at 100,000 cells per well of a 96-well plate one day prior to the experiment. The BEAS-2B assay was run in complete growth medium (bronchial epithelial basal medium plus bulletkit; Lonza; Basel, Switzerland).
Test compounds were serially diluted 1:2 in DMSO and then diluted 1:50 in medium just before use. Diluted compounds were added to the cells, for a final DMSO concentration of […], and incubated for 30 m (for the TF-1 assay) or […] (for the BEAS-2B assay) at 37° C. Then, cells were stimulated with human recombinant cytokine at their respective EC90 concentrations, as previously determined for each individual lot. Cells were stimulated with IL-13 (R&D Systems, Minneapolis, Minn.) for 15 min at 37° C. The TF-1 cell reactions were stopped by the direct addition of 10× lysis buffer (Cell Signaling Technologies, Danvers, Mass.), whereas the BEAS-2B cell incubations were halted by the removal of medium and addition of 1× lysis buffer. The resultant samples were frozen in the plates at −80° C. Compound mediated inhibition of STAT6 phosphorylation was measured in the cell lysates using MesoScale Discovery (MSD) technology (Gaithersburg, Md.).

Experiment [3] concerns the target T2, isolated recombinant JAK2 kinase domain (Homo sapiens, UniProt O60674).
T2 construct: isolated recombinant JAK1 and JAK2 kinase domain
Description: JAK enzyme assay, JAK2 kinase domain (Caliper LabChip). It is filed as biochemical. The following applies: 0.2 nM JAK2, ATP 25 μM, Morrison tight binding model. The method, then:
as §1, §2, §3

T2 sequence (O60674 849-1124 limits assumed): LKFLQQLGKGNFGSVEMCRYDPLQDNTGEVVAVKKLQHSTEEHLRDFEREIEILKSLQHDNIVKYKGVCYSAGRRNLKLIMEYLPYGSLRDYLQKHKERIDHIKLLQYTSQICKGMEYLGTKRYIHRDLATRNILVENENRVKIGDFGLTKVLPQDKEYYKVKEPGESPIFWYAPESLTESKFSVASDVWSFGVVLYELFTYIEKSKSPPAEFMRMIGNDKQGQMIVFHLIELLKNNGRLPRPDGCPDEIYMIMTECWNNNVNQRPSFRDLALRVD
T1 sequence (P23458 875-1153 limits assumed): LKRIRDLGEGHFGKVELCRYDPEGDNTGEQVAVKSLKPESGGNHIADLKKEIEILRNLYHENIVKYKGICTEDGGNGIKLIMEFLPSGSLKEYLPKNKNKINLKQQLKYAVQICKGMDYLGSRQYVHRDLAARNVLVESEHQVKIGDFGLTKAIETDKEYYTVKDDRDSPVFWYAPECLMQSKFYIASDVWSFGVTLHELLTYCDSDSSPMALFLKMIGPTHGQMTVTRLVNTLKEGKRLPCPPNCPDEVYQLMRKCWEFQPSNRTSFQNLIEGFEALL

For `CN1CCN(C(=O)CN2CCC(n3cc(NC(=O)c4cnn5cccnc45)c(-c4cc(Cl)ccc4OC(F)F)n3)C2=O)CC1` (single isomer, unassigned) [Example 17, N-[3-[5-chloro-2-(difluoromethoxy)phenyl]-1-[1-[2-(4-methylpiperazin-1-yl)-2-oxo-ethyl]-2-oxo-pyrrolidin-3-yl]pyrazol-4-yl]pyrazolo[1,5-a]pyrimidine-3-carboxamide], the pKi was 8.59 in experiment [1] and 8.82 in experiment [3]. Moreover, the pIC50 in experiment [2] is 6.52.
On to `CN1CCC(n2cc(NC(=O)c3cnn4cccnc34)c(-c3cc(SC(F)F)ccc3OC(F)F)n2)C1=O` (single isomer, unassigned) [Example 18, N-[3-[2-(difluoromethoxy)-5-(difluoromethyl-sulfanyl)phenyl]-1-(1-methyl-2-oxo-pyrrolidin-3-yl)pyrazol-4-yl]pyrazolo[1,5-a]pyrimidine-3-carboxamide], for which the pKi in experiment [1] was 9.55; in experiment [3], 9.41. In addition, the pIC50 in experiment [2] was 7.82.
With `CN1CCC(n2cc(NC(=O)c3cnn4cccnc34)c(-c3cc(SC(F)F)ccc3OC(F)F)n2)C1=O` (single isomer, unassigned) [Example 19, N-[3-[2-(difluoromethoxy)-5-(difluoromethyl-sulfanyl)phenyl]-1-(1-methyl-2-oxo-pyrrolidin-3-yl)pyrazol-4-yl]pyrazolo[1,5-a]pyrimidine-3-carboxamide], the pKi in experiment [1] was 8.60; in experiment [3] it was 9.26. Further, the pIC50 in experiment [2] is 7.23.
Consider `CN1CCCC(n2cc(NC(=O)c3cnn4cccnc34)c(-c3cc(Cl)ccc3OC(F)F)n2)C1=O` (single isomer, unassigned) [Example 20, N-[3-[5-chloro-2-(difluoromethoxy)phenyl]-1-(1-methyl-2-oxo-3-piperidyl)pyrazol-4-yl]pyrazolo[1,5-a]pyrimidine-3-carboxamide], for which the pKi was 9.32 in experiment [1] and 8.82 in experiment [3]. In experiment [2], the negative logarithm of the IC50 (pIC50) is 7.62.
On to `CN1CCCC(n2cc(NC(=O)c3cnn4cccnc34)c(-c3cc(Cl)ccc3OC(F)F)n2)C1=O` (single isomer, unassigned) [Example 21, N-[3-[5-chloro-2-(difluoromethoxy)phenyl]-1-(1-methyl-2-oxo-3-piperidyl)pyrazol-4-yl]pyrazolo[1,5-a]pyrimidine-3-carboxamide], for which the pKi in experiment [1] is 8.39; in experiment [3], 8.68. For the same compound, the pIC50 in experiment [2] is 7.13.
`O=C(Nc1cn(C2CCN(C3COC3)C2=O)nc1-c1cc(Cl)ccc1OC(F)F)c1cnn2cccnc12` (single isomer, unassigned) [Example 23, N-[3-[5-chloro-2-(difluoromethoxy)phenyl]-1-[1-(oxetan-3-yl)-2-oxo-pyrrolidin-3-yl]pyrazol-4-yl]pyrazolo[1,5-a]pyrimidine-3-carboxamide]: the pKi in experiment [1] is 9.29; in experiment [3] it was 9.27. For the same compound, the pIC50 in experiment [2] is 7.64.
Turning to `O=C(Nc1cn(C2CCN(C3COC3)C2=O)nc1-c1cc(Cl)ccc1OC(F)F)c1cnn2cccnc12` (single isomer, unassigned) [Example 24, N-[3-[5-chloro-2-(difluoromethoxy)phenyl]-1-[1-(oxetan-3-yl)-2-oxo-pyrrolidin-3-yl]pyrazol-4-yl]pyrazolo[1,5-a]pyrimidine-3-carboxamide], the pKi is 8.41 in experiment [1] and 9.01 in experiment [3]. Also, the pIC50 in experiment [2] was 7.24.
For the compound `O=C(Nc1cn(C2CCOC2=O)nc1-c1cc(Cl)ccc1OC(F)F)c1cnn2cccnc12` (single isomer, unassigned) [Example 27, N-[3-[5-chloro-2-(difluoromethoxy)phenyl]-1-(2-oxotetrahydrofuran-3-yl)pyrazol-4-yl]pyrazolo[1,5-a]pyrimidine-3-carboxamide], the pKi is 9.11 in experiment [1] and 9.30 in experiment [3]. For the same compound, in experiment [2], the pIC50 is 7.62.
For the compound `O=C(Nc1cn(C2CCOC2=O)nc1-c1cc(Cl)ccc1OC(F)F)c1cnn2cccnc12` (single isomer, unassigned) [Example 28, N-[3-[5-chloro-2-(difluoromethoxy)phenyl]-1-(2-oxotetrahydrofuran-3-yl)pyrazol-4-yl]pyrazolo[1,5-a]pyrimidine-3-carboxamide], the pKi in experiment [1] is 9.46; in experiment [3], 9.70. Also, in experiment [2], the pIC50 was 7.96.
On to `CSc1ccc(OC(F)F)c(-c2nn(C3CCOC3=O)cc2NC(=O)c2cnn3cccnc23)c1` (single isomer, unassigned) [Example 29, N-[3-[2-(difluoromethoxy)-5-methylsulfanyl-phenyl]-1-(2-oxotetrahydrofuran-3-yl)pyrazol-4-yl]pyrazolo[1,5-a]pyrimidine-3-carboxamide], for which the pKi in experiment [1] is 9.52; in experiment [3], 9.82. Moreover, in experiment [2] (Homo sapiens, BEAS-2B, […]), the pIC50 was 8.04.
Take `CSc1ccc(OC(F)F)c(-c2nn(C3CCOC3=O)cc2NC(=O)c2cnn3cccnc23)c1` (single isomer, unassigned) [Example 30, N-[3-[2-(difluoromethoxy)-5-methylsulfanyl-phenyl]-1-(2-oxotetrahydrofuran-3-yl)pyrazol-4-yl]pyrazolo[1,5-a]pyrimidine-3-carboxamide]: the pKi was 9.82 in experiment [1] and 10.02 in experiment [3]. Moreover, in experiment [2], the negative logarithm of the IC50 (pIC50) was 7.96.
In the case of `O=C(Nc1cn(C2CCOC2=O)nc1-c1cc(SC(F)F)ccc1OC(F)F)c1cnn2cccnc12` (single isomer, unassigned) [Example 31, N-[3-[2-(difluoromethoxy)-5-(difluoromethyl-sulfanyl)phenyl]-1-(2-oxotetrahydrofuran-3-yl)pyrazol-4-yl]pyrazolo[1,5-a]pyrimidine-3-carboxamide], the negative-log Ki (pKi) in experiment [1] is 9.15; in experiment [3], 9.40. Besides, the pIC50 in experiment [2] was 7.80.
With `O=C(Nc1cn(C2CCOC2=O)nc1-c1cc(SC(F)F)ccc1OC(F)F)c1cnn2cccnc12` (single isomer, unassigned) [Example 32, N-[3-[2-(difluoromethoxy)-5-(difluoromethyl-sulfanyl)phenyl]-1-(2-oxotetrahydrofuran-3-yl)pyrazol-4-yl]pyrazolo[1,5-a]pyrimidine-3-carboxamide], the results for the pKi in experiment [1] and in experiment [3] were 9.77 and 9.96, respectively. In addition, the pIC50 in experiment [2] is 8.18.
As to `O=C(Nc1cn(C2CCOC2=O)nc1-c1cc(OC(F)F)ccc1OC(F)F)c1cnn2cccnc12` (single isomer, unassigned) [Example 36, N-[3-[2,5-bis(difluoromethoxy)phenyl]-1-(2-oxotetrahydrofuran-3-yl)pyrazol-4-yl]pyrazolo[1,5-a]pyrimidine-3-carboxamide], the negative logarithm of the Ki (pKi) in experiment [1] was 9.19; in experiment [3], 9.40. In experiment [2] (Homo sapiens, BEAS-2B, […]), the pIC50 was 7.74.
Turning to `O=C(Nc1cn(C2CCOC2=O)nc1-c1cc(OC(F)F)ccc1OC(F)F)c1cnn2cccnc12` (single isomer, unassigned) [Example 37, N-[3-[2,5-bis(difluoromethoxy)phenyl]-1-(2-oxotetrahydrofuran-3-yl)pyrazol-4-yl]pyrazolo[1,5-a]pyrimidine-3-carboxamide], the values for the pKi in experiment [1] and in experiment [3] were 9.59 and 9.74, respectively. In experiment [2], the pIC50 is 7.85.
